Measurements from patent publication US20080221074A1, “Drug Screen and Treatment Method” (priority 2006, published 2008).

Legend:
EAE = test: experimental allergic encephalomyelitis (EAE), PLP 139-151; assay type: in vivo, female SJL/J mice; details: 5 mg/kg daily oral gavage; through day 26
Excerpt: Treatment of autoimmune neurodegeneration. Three compounds, 17β-aminoandrost-5-ene-3β-ol, 17β-dimethylaminoandrost-5-ene-3β-ol and 17β-methylaminoandrost-5-ene-3β-ol were characterized for their capacity to ameliorate experimental allergic encephalomyelitis (EAE) in mice. This demyelinating condition is extensively used as a model for multiple sclerosis in humans and for testing of new therapies for treating multiple sclerosis, e.g., B. F. Bebo Jr. et al., J. Neurosci. Res. 52:420-426 1998; R. R. Voskuhl et al., Neuroscientist, 7:258-270 2001; H. Offner et al., J. Neuroimmunol., 130:128-139 2002.
In this protocol, the compounds were administered to female SJL/J mice by oral gavage at the onset of disease symptoms. An antigen was used to initiate the EAE condition in the mice. […] Immunization with this peptide antigen initiates an autoimmune Thl mediated demyelinating disease of the central nervous system. The antigen was prepared by solid phase synthesis and purified by high-performance liquid chromatography. […] The immunization protocol was subcutaneous injection over four sites on the hind flank on day 0. After immunization. the mice were assessed daily for clinical signs of EAE using the following scale: 0=no clinical signs or symptoms; 1=limp tail; 2=mild hind limb weakness and limp tail; 3=moderate hind limb weakness and limp tail or mild ataxia; 4=severe hind limb weakness and mild forearm weakness with moderate ataxia; 5=paraplegia with no more than moderate forelimb weakness; 6=paraplegia with severe forelimb weakness or severe ataxia or moribund condition.
Mice in the vehicle control group began to show observable symptoms of EAE at about 10-11 days after immunization with the PLP antigen, which is typical for the EAE disease model. The animals were dosed daily with 17β-aminoandrost-5-ene-3β-ol, 17β-dimethylaminoandrost-5-ene-3β-ol or 17β-methylaminoandrost-5-ene-3β-ol by oral gavage beginning at day 1, which was 1 day after immunization.

[1] = tested on: progressive ischemia after thermal injury of the ear; test: thermal injury model using mouse ear tissue; assay type: in vivo, Balb/c mice; details: injection in propylene glycol after burn
Description: A thermal injury model using mouse ear tissue was used to characterize compounds for their capacity to treat inflammation associated with thermal trauma. […] Groups of Balb/c mice, approximately nine weeks old were given an identifying mark and then divided into control and treated subgroups. The thickness of the ear to be immersed in hot water was recorded, and then the entire ear of the anesthetized mouse was dipped into 52° C. water for 24 seconds. Each mouse was returned to its cage after an injection of either the propylene glycol vehicle (control) or 100 mg of compound in propylene glycol. Ear swelling changes were monitored on individual mice at pre-burn, and at various times after thermal injury. Ear swelling changes were monitored on individual mice at pre-injury and at 1, 3, 6, 9,12, 18, 24 and 48 hours after thermal injury. Animals were treated with 100 mg of dehydroepiandrosterone (DHEA) dissolved in propylene glycol.

[2] = tested on: human T lymphocytes (PBMC); test: human mixed lymphocyte reaction (MLR); assay type: cell-based; details: 300 nM or 30 nM
Excerpt: Human mixed lymphocyte reaction (MLR). The capacity of 3β,16α-dihydroxy-17-oxoandrostane, 3β,17β-dihydroxy-16-oxoandrostane, 17α-ethynylandrost-5-ene-3β,7β,17β-triol, and 17β-aminoandrost-5-ene-3β-ol to affect antigen specific stimulation in which human T lymphocytes respond to a specific foreign antigen (major histocompatibility complex).
Blood samples were obtained from 3 (2 males, […]) fasting, healthy human volunteers of 23-31 years old. […] The subjects were bled between 9 and 10 AM to limit possible fluctuations in the circulating levels of hormones or cytokines that could have influenced the in vitro responses of their lymphocytes. Peripheral blood mononuclear cells (PBMC) were isolated by centrifugation on Ficoll-Hypaque (density 1.077, Biochrom AG, Berlin, Germany) gradients and resuspended in culture medium (RPMI 1640 supplemented with 2 mM L-glutamine, penicillin (100 U/mL) and streptomycin ([…]) (Invitrogen s.rl., Milan, Italy). Autologous (responder) inactivated plasma was used at 10%. Five hundred thousand responder PBMC (PBMCr) and 500,000 allogeneic irradiated (30 Gy) stimulator PBMC (PBMCs) were mixed at a ratio of 1:1 in 200 μL medium and cultured for 6 days in flat bottom 96 well plates (Nunc, Roskilde, Denmark) at a concentration of 300 nM or 30 nM for each of the 4 compounds. The compounds were dissolved in ethanol and then diluted to the desired concentration with culture medium leading to a final solution containing 0.01% of ethanol. This vehicle was used as control. Controls also included PBMCr and PBMCs cultured separately. During the last 8 hours of the culture period the PBMC were pulsed with […] [^3H] thymidine (Amersham, Milan, Italy). The cells were then harvested and radioactivity incorporation measured with a beta cell counter. The mean cpm of quadruplicate wells was calculated. Proliferation of T cells was expressed as a stimulation index: SI=cpm (PMBCs xPBMCr)/cpm (PBMCr)+cpm (PBMCs). Statistical analysis was performed using the Student's t test. The cpm obtained from quadruplicate of each test compound were compared to proliferative responses obtained in control PBMCr and PBMCs cultured in the presence of the vehicle. Differences were considered significant at p<0.05.

NF-κB = test: inhibition of NF-κB activation in NF-κB-bla THP-1 cells after LPS stimulation; assay type: cell-based, human; details: Homo sapiens, THP-1
Excerpt: Inhibition of NF-κB in vitro. […] Activation of NF-κB increases expression of a number of genes that mediate inflammation. This protocol used human THP-1 cells, which are human mononuclear blood cells with a monocyte phenotype. The cell line, referred to as NF-κB-bla THP-1, contained a β-lactamase reporter gene under the control of the NF-kB response element (Invitrogen, CellSensor™, product No. K1176). In this cell line, the β-lactamase reporter gene is stably integrated in the THP-1 cells. This cell line was used to detect agonists or antagonists of the NF-κB signaling pathway. These NF-κB-bla THP-1 cells respond to the presence of tumor necrosis factor alpha (TNFα) or bacterial lipopolysaccharide (LPS) by increased expression of the β-lactamase reporter gene. The level of β-lactamase enzyme activity was measured by fluorescence resonance energy transfer ratiometric detection. TNFα and LPS are both potent inflammation-inducing agents that activate NF-κB in THP1 cells. In this assay, compounds that decrease NF-κB activity, and thus β-lactamase, in the presence of TNFα or LPS are exerting an anti-inflammation activity.
The NF-κB-bla THP-1 cells were maintained by passaging or feeding as needed. […] The cells were plated at 20,000 cells/well in a 384-well Black-wall, clear bottom assay plates (Costar#3712-TC low fluorescence background plates) approximately 24 hours before adding either TNFα at 10 ng/mL or LPS at 0.2 ng/mL to activate NF-κB.
The assays were usually conducted 2-4 times for each compound and the values shown below are averages for each compound.

[3] = tested on: ionizing radiation exposure; test: survival after lethal total body irradiation (10 Gy); assay type: in vivo, female B6D2F1 mice
Description: Treatment of ionizing radiation exposure. The effect of selected F1Cs on survival of lethally-irradiated female B6D2F1 mice were compared to control animals treated with vehicle alone. […] For Group 4, test article was administered as a 50 μL volume, by intramuscular injection for three consecutive days. The formulation was a a suspension containing 0.1% w/v carboxymethyl-cellulose, 0.9% w/v sodium chloride and 0.05% v/v phenol. The formulations were agitated to uniformly resuspend the Fl C before syringing, and injected into animals within a few minutes of drawing into the syringe to prevent settling in the syringe.
The groups of animals were treated as follows. […] The number of surviving animals is shown for day 6, 7, 12 and 21.

[4] = tested on: insulin sensitivity in db/db diabetic mice; test: hyperinsulinemic-euglycemic clamp; assay type: in vivo; details: ^14C-2-deoxyglucose; p<0.05
Description: Glucose lowering in 8 week old db/db diabetic mice. The hyperinsulinemic-euglycemic clamp protocol was conducted to measure insulin sensitivity in vivo. In this procedure, insulin was administered to raise the insulin concentration while glucose was infused to maintain euglycemia or a fixed, normal blood glucose level (about 180 mg/dL). […] The objective of this protocol was to investigate characterize the capacity of 17α-ethynylandrost-5-ene-3β,7β,17β-triol and androst-5-ene-3β,7β,16α,17β-tetrol to ameliorate systemic insulin resistance and improve whole body glucose disposal in the hyperinsulinemic-euglycemic clamp model. The degree of skeletal muscle and hepatic insulin sensitivity and tissue specific glucose uptake were also assessed. The animals were dosed daily by oral gavage for 14 days. On Day 10 of treatment catheters were implanted in the carotid artery and jugular vein. On the day of the clamp (day 14) the compound was administered at 7:30 am.
Body weight and glucose concentration were assessed on day 0, 7 and day 14 of treatment. On day 14 a euglycemic hyperinsulinemic clamp was performed. Food was removed at 7:30 am at 10:30 a primed continuous infusion of [3-^3H]-glucose (0.05 μCi/min). A baseline blood sample was taken at 12:50 (−10 min) and at 1:00 (0 min) a euglycemic hyperinsulinemic clamp was initiated by administering 10 mU /kg/min of insulin. Glucose was infused at a variable rate to clamp the glucose concentration at ˜180 mg/dl. A bolus of [^14C]-2deoxyglucose was given at the end of the study to assess tissue specific glucose uptake. Plasma ^14C 2-deoxyglucose was assessed at 122, 125, 130, 135, 145 min. […]
Analysis was conducted as follows. Plasma samples were deproteinized with Ba(OH)2 (0.3 N) and ZnSO4 (0.3 N), dried and radioactivity was assessed on scintillation counter (Packard TRICARB 2900 TR, Meriden, Conn.). […] One supernatant was directly counted to determine radioactivity from both [14C] […] A second aliquot was treated with Ba(OH)2 and ZnSO4 to remove ^14C DGP and any tracer incorporated into glycogen and then counted to determine radioactivity from free [^14C]DG(2). [^14C]DGP was calculated as the difference between the two aliquots. […] Rg, an index of tissue specific glucose uptake was calculated as previously described (E.W. Kraegen et al., Am. J. Physiol., 248:E353-E362, 1985). Whole body glucose turnover was calculated as the ratio of the ^3H glucose infusion rate (dpm/kg/min) and arterial plasma glucose specific activity (dpm/mg). Endogenous glucose production was calculated as the difference between the whole body glucose turnover and the exogenous glucose infusion rate (R. N. Bergman et al., Endocr. Rev., 6:45-86, 1985).

CN[C@H]1CC[C@H]2[C@@H]3CC=C4C[C@@H](O)CC[C@]4(C)[C@H]3CC[C@]12C [17β-methylaminoandrost-5-ene-3β-ol] was tested, and the “clinical severity of EAE symptoms” value (EAE) was “reduced the clinical severity”.
For C[C@]12CC[C@H](O)CC1=CC[C@@H]1[C@@H]2CC[C@]2(C)C(=O)[C@H](O)C[C@@H]12 [16α-hydroxydehydroepiandrosterone], the “protection against progressive ischemia after thermal injury to the ear” value (“protection against progressive ischemia” below) [1] was “less protective”.
With C[C@]12CC[C@H](O)CC1=CC[C@@H]1[C@@H]2CC[C@]2(C)C(=O)[C@H](Cl)C[C@@H]12 [16α-chlorodehydroepiandrosterone] the “protection against progressive ischemia” value [1] was “only slightly protective”.
With C[C@]12CC[C@H]3[C@@H](CCC4C[C@@H](O)CC[C@@]43C)[C@@H]1CC(=O)[C@@H]2O (stereo partly drawn) [3β,17β-dihydroxy-16-oxoandrostane] the “immune suppression (inhibition of the MLR)” value [2] was “not appreciably immune suppressive”.
With C[C@]12CC[C@H]3[C@@H](CC=C4C[C@@H](O)CC[C@@]43C)[C@@H]1CC[C@@H]2O [androst-5-ene-3β,17β-diol] the “protection against progressive ischemia” value [1] was “protected treated animals against much of the ischemic consequences”, the IC50 (NF-κB) was 0.014 nM and the “number of surviving animals (groups of 12)” value (from here on “number of surviving animals”) ([3]; 0.6 mg i.m. daily for 3 days, day 6) was 12. For the same molecule, the “number of surviving animals” value ([3]; 0.6 mg i.m. daily for 3 days, day 7) was 12, the “number of surviving animals” value ([3]; 0.6 mg i.m. daily for 3 days, day 12) was 11 and the “number of surviving animals” value ([3]; 0.6 mg i.m. daily for 3 days, day 21) was 9. The “number of surviving animals” value ([3]; 0.6 mg s.c. daily for 3 days, day 6) was 12, the “number of surviving animals” value ([3]; 0.6 mg s.c. daily for 3 days, day 7) was 11 and the “number of surviving animals” value ([3]; 0.6 mg s.c. daily for 3 days, day 12) was 10. The “number of surviving animals” value ([3]; 0.6 mg s.c. daily for 3 days, day 21) was 7, the “number of surviving animals” value ([3]; 3.0 mg s.c. daily for 3 days, day 6) was 12 and the “number of surviving animals” value ([3]; 3.0 mg s.c. daily for 3 days, day 7) was 12. For the same molecule, the “number of surviving animals” value ([3]; 3.0 mg s.c. daily for 3 days, day 12) was 9 and the “number of surviving animals” value ([3]; 3.0 mg s.c. daily for 3 days, day 21) was 7.
With C[C@]12CC[C@H](O)CC1=CC[C@@H]1[C@@H]2CC[C@]2(C)C(=O)[C@H](Br)C[C@@H]12 [16α-bromodehydroepiandrosterone] the “protection against progressive ischemia” value [1] was “protected treated animals against much of the ischemic consequences”.
CN(C)[C@H]1CC[C@H]2[C@@H]3CC=C4C[C@@H](O)CC[C@]4(C)[C@H]3CC[C@]12C [17β-dimethylaminoandrost-5-ene-3β-ol] was tested, and the “clinical severity of EAE symptoms” value (EAE) was “reduced the clinical severity”.
In the case of CN(CCOc1ccc(CC2SC(=O)NC2=O)cc1)c1ccccn1.O=C(O)/C=C\C(=O)O (stereo not drawn) [rosiglitazone, rosiglitazone maleate, reference compound], the “glucose uptake in the gastrocnemius muscle” value [4] is reported as “more effective”.
